Results published in the supplement of paper PMC10733146.

Legend:
Assay in all cases: viability relative to DMSO control (fraction); higher = less drug effect (more viable cells)
Details in all cases: 48 h
[1] = test system: primary BL patient cells (S005)
Outline: (§1)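 Primary mononuclear tumour cells (Ficoll-isolated from blood or bone marrow, or processed lymph node; fresh or cryopreserved) were plated at 4 × 10^4 cells per well in 384-well plates with pre-plated compounds at five concentrations, one well each. Medium was RPMI-1640 with penicillin/streptomycin, L-glutamine and human serum, at 37 °C and 5% CO2 for 48 h. Viability was read as CellTiter-Glo luminescence relative to the median of 16 inner DMSO wells.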

[2] = test system: primary CLL patient cells (S043)
Outline: as §1

[3] = test system: primary B-PLL patient cells (S016)
Outline: as §1

[4] = test system: primary MCL patient cells (S053)
Outline: as §1

[5] = test system: primary MCL patient cells (S063)
Outline: as §1

[6] = test system: primary CLL patient cells (S031)
Outline: as §1

[7] = test system: primary DLBCL patient cells (S082)
Outline: as §1

[8] = test system: primary AML patient cells (S072)
Outline: as §1

[9] = test system: primary AML patient cells (S006)
Outline: as §1

[10] = test system: primary AML patient cells (S085)
Outline: as §1

[11] = test system: primary AML patient cells (S071)
Outline: as §1

[12] = test system: primary AML patient cells (S056)
Outline: as §1

[13] = test system: primary AML patient cells (S009)
Outline: as §1

[14] = test system: primary AML patient cells (S012)
Outline: as §1

[15] = test system: primary ALL patient cells (S088)
Outline: as §1

[16] = test system: primary FL patient cells (S087)
Outline: as §1

[17] = test system: primary AML patient cells (S017)
Outline: as §1

[18] = test system: primary MCL patient cells (S041)
Outline: as §1

[19] = test system: primary AML patient cells (S060)
Outline: as §1

[20] = test system: primary AML patient cells (S079)
Outline: as §1

## CC(=O)Nc1cccc(-n2c(=O)n(C3CC3)c(=O)c3c(Nc4ccc(I)cc4F)n(C)c(=O)c(C)c32)c1 [Trametinib]
[1]; 0.0008 µM
  viability: 0.943
[1]; 0.004 µM
  viability: 0.964
[1]; 0.02 µM
  viability: 1.01
[1]; 0.1 µM
  viability: 0.984
[1]; 0.5 µM
  viability: 0.912
[2]; 0.0008 µM
  viability: 0.825
[2]; 0.004 µM
  viability: 0.769
[2]; 0.02 µM
  viability: 0.777
[2]; 0.1 µM
  viability: 0.748
[2]; 0.5 µM
  viability: 0.744
[3]; 0.0008 µM
  viability: 0.939
[3]; 0.004 µM
  viability: 1.05
[3]; 0.02 µM
  viability: 0.986
[3]; 0.1 µM
  viability: 0.933
[3]; 0.5 µM
  viability: 0.885
[4]; 0.0008 µM
  viability: 0.885
[4]; 0.004 µM
  viability: 0.899
[4]; 0.02 µM
  viability: 0.818
[4]; 0.1 µM
  viability: 0.806
[4]; 0.5 µM
  viability: 0.733
[5]; 0.0008 µM
  viability: 0.991
[5]; 0.004 µM
  viability: 0.973
[5]; 0.02 µM
  viability: 0.987
[5]; 0.1 µM
  viability: 0.949
[5]; 0.5 µM
  viability: 0.936
[6]; 0.0008 µM
  viability: 0.648
[6]; 0.004 µM
  viability: 0.49
[6]; 0.02 µM
  viability: 0.379
[6]; 0.1 µM
  viability: 0.349
[6]; 0.5 µM
  viability: 0.311
[7]; 0.0008 µM
  viability: 0.835
[7]; 0.004 µM
  viability: 0.828
[7]; 0.02 µM
  viability: 0.727
[7]; 0.1 µM
  viability: 0.702
[7]; 0.5 µM
  viability: 0.651
[8]; 0.0008 µM
  viability: 0.907
[8]; 0.004 µM
  viability: 0.859
[8]; 0.02 µM
  viability: 0.751
[8]; 0.1 µM
  viability: 0.732
[8]; 0.5 µM
  viability: 0.69
[9]; 0.0008 µM
  viability: 0.888
[9]; 0.004 µM
  viability: 0.939
[9]; 0.02 µM
  viability: 0.787
[9]; 0.1 µM
  viability: 0.86
[9]; 0.5 µM
  viability: 0.798
[10]; 0.0008 µM
  viability: 0.667
[10]; 0.004 µM
  viability: 0.618
[10]; 0.02 µM
  viability: 0.484
[10]; 0.1 µM
  viability: 0.456
[10]; 0.5 µM
  viability: 0.415
[11]; 0.0008 µM
  viability: 0.8
[11]; 0.004 µM
  viability: 0.789
[11]; 0.02 µM
  viability: 0.757
[11]; 0.1 µM
  viability: 0.744
[11]; 0.5 µM
  viability: 0.708
[12]; 0.0008 µM
  viability: 0.77
[12]; 0.004 µM
  viability: 0.66
[12]; 0.02 µM
  viability: 0.588
[12]; 0.1 µM
  viability: 0.535
[12]; 0.5 µM
  viability: 0.514
[13]; 0.0008 µM
  viability: 1.09
[13]; 0.004 µM
  viability: 1.17
[13]; 0.02 µM
  viability: 1.24
[13]; 0.1 µM
  viability: 1.24
[13]; 0.5 µM
  viability: 1.04
[14]; 0.0008 µM
  viability: 0.799
[14]; 0.004 µM
  viability: 0.808
[14]; 0.02 µM
  viability: 0.45
[14]; 0.1 µM
  viability: 0.406
[14]; 0.5 µM
  viability: 0.306
[15]; 0.0008 µM
  viability: 0.62
[15]; 0.004 µM
  viability: 0.548
[15]; 0.02 µM
  viability: 0.545
[15]; 0.1 µM
  viability: 0.503
[15]; 0.5 µM
  viability: 0.504
[16]; 0.0008 µM
  viability: 0.951
[16]; 0.004 µM
  viability: 0.9
[16]; 0.02 µM
  viability: 0.92
[16]; 0.1 µM
  viability: 0.903
[16]; 0.5 µM
  viability: 0.941
[17]; 0.0008 µM
  viability: 1.02
[17]; 0.004 µM
  viability: 1.1
[17]; 0.02 µM
  viability: 0.888
[17]; 0.1 µM
  viability: 0.852
[17]; 0.5 µM
  viability: 0.719
[18]; 0.0008 µM
  viability: 0.989
[18]; 0.004 µM
  viability: 1.04
[18]; 0.02 µM
  viability: 1.03
[18]; 0.1 µM
  viability: 1.01
[18]; 0.5 µM
  viability: 1.02
[19]; 0.0008 µM
  viability: 1.04
[19]; 0.004 µM
  viability: 0.797
[19]; 0.02 µM
  viability: 0.681
[19]; 0.1 µM
  viability: 0.657
[19]; 0.5 µM
  viability: 0.642
[20]; 0.0008 µM
  viability: 0.703
[20]; 0.004 µM
  viability: 0.655
[20]; 0.02 µM
  viability: 0.556
[20]; 0.1 µM
  viability: 0.538
[20]; 0.5 µM
  viability: 0.504

## Cc1nc(Nc2ncc(C(=O)Nc3c(C)cccc3Cl)s2)cc(N2CCN(CCO)CC2)n1 [Dasatinib]
[1]; 0.0016 µM
  viability: 0.917
[1]; 0.008 µM
  viability: 0.807
[1]; 0.04 µM
  viability: 0.788
[1]; 0.2 µM
  viability: 0.7
[1]; 1 µM
  viability: 0.697
[2]; 0.0016 µM
  viability: 1.31
[2]; 0.008 µM
  viability: 1.2
[2]; 0.04 µM
  viability: 0.67
[2]; 0.2 µM
  viability: 0.595
[2]; 1 µM
  viability: 0.547
[3]; 0.0016 µM
  viability: 0.693
[3]; 0.008 µM
  viability: 0.45
[3]; 0.04 µM
  viability: 0.397
[3]; 0.2 µM
  viability: 0.368
[3]; 1 µM
  viability: 0.445
[4]; 0.0016 µM
  viability: 1.14
[4]; 0.008 µM
  viability: 0.882
[4]; 0.04 µM
  viability: 0.494
[4]; 0.2 µM
  viability: 0.342
[4]; 1 µM
  viability: 0.347
[5]; 0.0016 µM
  viability: 1
[5]; 0.008 µM
  viability: 0.653
[5]; 0.04 µM
  viability: 0.245
[5]; 0.2 µM
  viability: 0.151
[5]; 1 µM
  viability: 0.118
[6]; 0.0016 µM
  viability: 0.944
[6]; 0.008 µM
  viability: 0.609
[6]; 0.04 µM
  viability: 0.393
[6]; 0.2 µM
  viability: 0.325
[6]; 1 µM
  viability: 0.313
[7]; 0.0016 µM
  viability: 0.966
[7]; 0.008 µM
  viability: 0.847
[7]; 0.04 µM
  viability: 0.643
[7]; 0.2 µM
  viability: 0.298
[7]; 1 µM
  viability: 0.0983
[8]; 0.0016 µM
  viability: 0.945
[8]; 0.008 µM
  viability: 0.851
[8]; 0.04 µM
  viability: 0.712
[8]; 0.2 µM
  viability: 0.623
[8]; 1 µM
  viability: 0.704
[9]; 0.0016 µM
  viability: 0.961
[9]; 0.008 µM
  viability: 0.912
[9]; 0.04 µM
  viability: 0.88
[9]; 0.2 µM
  viability: 0.808
[10]; 0.0016 µM
  viability: 0.943
[10]; 0.008 µM
  viability: 0.736
[10]; 0.04 µM
  viability: 0.691
[10]; 0.2 µM
  viability: 0.605
[10]; 1 µM
  viability: 0.91
[11]; 0.0016 µM
  viability: 1.04
[11]; 0.008 µM
  viability: 1.05
[11]; 0.04 µM
  viability: 1
[11]; 0.2 µM
  viability: 0.948
[11]; 1 µM
  viability: 0.951
[12]; 0.0016 µM
  viability: 0.859
[12]; 0.008 µM
  viability: 1.03
[12]; 0.04 µM
  viability: 0.748
[12]; 0.2 µM
  viability: 0.63
[12]; 1 µM
  viability: 0.572
[13]; 0.0016 µM
  viability: 0.987
[13]; 0.008 µM
  viability: 0.965
[13]; 0.04 µM
  viability: 0.993
[13]; 0.2 µM
  viability: 0.972
[13]; 1 µM
  viability: 1
[14]; 0.0016 µM
  viability: 0.993
[14]; 0.008 µM
  viability: 0.917
[14]; 0.04 µM
  viability: 1.01
[14]; 0.2 µM
  viability: 1
[14]; 1 µM
  viability: 1.01
[15]; 0.0016 µM
  viability: 0.899
[15]; 0.008 µM
  viability: 0.709
[15]; 0.04 µM
  viability: 0.62
[15]; 0.2 µM
  viability: 0.545
[15]; 1 µM
  viability: 0.631
[16]; 0.0016 µM
  viability: 0.914
[16]; 0.008 µM
  viability: 0.782
[16]; 0.04 µM
  viability: 0.747
[16]; 0.2 µM
  viability: 0.753
[16]; 1 µM
  viability: 0.742
[17]; 0.0016 µM
  viability: 0.997
[17]; 0.008 µM
  viability: 0.859
[17]; 0.04 µM
  viability: 0.654
[17]; 0.2 µM
  viability: 0.689
[17]; 1 µM
  viability: 0.711
[18]; 0.0016 µM
  viability: 0.903
[18]; 0.008 µM
  viability: 0.79
[18]; 0.04 µM
  viability: 0.723
[18]; 0.2 µM
  viability: 0.67
[18]; 1 µM
  viability: 0.6
[19]; 0.0016 µM
  viability: 1.02
[19]; 0.008 µM
  viability: 1.03
[19]; 0.04 µM
  viability: 0.901
[19]; 0.2 µM
  viability: 0.891
[19]; 1 µM
  viability: 0.638
[20]; 0.0016 µM
  viability: 0.973
[20]; 0.008 µM
  viability: 0.911
[20]; 0.04 µM
  viability: 0.863
[20]; 0.2 µM
  viability: 0.812
[20]; 1 µM
  viability: 1.04
